Source: patent publication US11739098B2 (BRISTOL-MYERS SQUIBB COMPANY, priority 2017, dated 2023)

How the values were obtained:
Format in all cases: cell-based
human TLR7 = biological target: T1, human TLR7 (Homo sapiens, UniProt Q9NYK1); assay: TLR7 inhibition reporter assay (HEK-Blue cells, SEAP reporter, gardiquimod stimulation); conditions: HEK-Blue cells overexpressing human TLR7, SEAP reporter, gardiquimod 7.5 μM
T1 construct: host or cells: HEK-Blue cells (HEK293-derived reporter line)
T1 sequence (Q9NYK1 27-1049): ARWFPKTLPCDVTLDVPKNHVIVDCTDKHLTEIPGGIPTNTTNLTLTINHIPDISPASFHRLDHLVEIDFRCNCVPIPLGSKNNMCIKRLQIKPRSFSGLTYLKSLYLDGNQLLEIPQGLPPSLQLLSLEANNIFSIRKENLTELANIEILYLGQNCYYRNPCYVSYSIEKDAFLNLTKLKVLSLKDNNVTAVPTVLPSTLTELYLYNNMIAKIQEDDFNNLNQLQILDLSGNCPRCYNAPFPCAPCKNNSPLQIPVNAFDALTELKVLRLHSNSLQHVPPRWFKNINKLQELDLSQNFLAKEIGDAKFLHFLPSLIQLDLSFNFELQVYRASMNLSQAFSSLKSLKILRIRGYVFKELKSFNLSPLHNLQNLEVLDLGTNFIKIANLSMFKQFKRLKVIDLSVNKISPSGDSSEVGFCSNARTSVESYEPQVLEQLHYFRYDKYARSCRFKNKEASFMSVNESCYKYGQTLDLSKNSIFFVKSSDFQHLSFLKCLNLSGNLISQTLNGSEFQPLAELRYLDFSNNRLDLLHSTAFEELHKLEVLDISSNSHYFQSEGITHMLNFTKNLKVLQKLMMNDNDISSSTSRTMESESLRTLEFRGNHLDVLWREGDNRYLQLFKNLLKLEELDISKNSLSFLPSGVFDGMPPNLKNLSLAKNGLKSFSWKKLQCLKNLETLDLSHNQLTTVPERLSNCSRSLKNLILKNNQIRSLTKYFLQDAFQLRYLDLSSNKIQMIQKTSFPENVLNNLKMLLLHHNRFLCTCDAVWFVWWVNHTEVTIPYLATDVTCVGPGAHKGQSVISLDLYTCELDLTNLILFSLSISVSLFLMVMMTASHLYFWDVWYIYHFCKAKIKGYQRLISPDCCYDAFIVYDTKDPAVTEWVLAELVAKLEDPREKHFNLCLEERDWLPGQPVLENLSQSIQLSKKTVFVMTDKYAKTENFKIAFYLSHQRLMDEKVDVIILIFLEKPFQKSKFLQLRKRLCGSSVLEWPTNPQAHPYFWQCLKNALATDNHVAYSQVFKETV
Outline: (§1)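 HEK-Blue cells overexpressing the receptor, with NF-κB/AP-1-driven SEAP, were pre-treated 30 min at room temperature with compound (0.05 nM–50 μM), then stimulated with gardiquimod 7.5 μM (TLR7), R848 15.9 μM (TLR8) or ODN2006 5 nM (TLR9). SEAP was read after 22 h at 37 °C as percent inhibition.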

human TLR8 = biological target: T2, human TLR8 (Homo sapiens, UniProt Q9NR97); assay: TLR8 inhibition reporter assay (HEK-Blue cells, SEAP reporter, R848 stimulation); conditions: HEK-Blue cells overexpressing human TLR8, SEAP reporter, R848 15.9 μM
T2 construct: host or cells: HEK-Blue cells (HEK293-derived reporter line)
T2 sequence (Q9NR97 27-1041): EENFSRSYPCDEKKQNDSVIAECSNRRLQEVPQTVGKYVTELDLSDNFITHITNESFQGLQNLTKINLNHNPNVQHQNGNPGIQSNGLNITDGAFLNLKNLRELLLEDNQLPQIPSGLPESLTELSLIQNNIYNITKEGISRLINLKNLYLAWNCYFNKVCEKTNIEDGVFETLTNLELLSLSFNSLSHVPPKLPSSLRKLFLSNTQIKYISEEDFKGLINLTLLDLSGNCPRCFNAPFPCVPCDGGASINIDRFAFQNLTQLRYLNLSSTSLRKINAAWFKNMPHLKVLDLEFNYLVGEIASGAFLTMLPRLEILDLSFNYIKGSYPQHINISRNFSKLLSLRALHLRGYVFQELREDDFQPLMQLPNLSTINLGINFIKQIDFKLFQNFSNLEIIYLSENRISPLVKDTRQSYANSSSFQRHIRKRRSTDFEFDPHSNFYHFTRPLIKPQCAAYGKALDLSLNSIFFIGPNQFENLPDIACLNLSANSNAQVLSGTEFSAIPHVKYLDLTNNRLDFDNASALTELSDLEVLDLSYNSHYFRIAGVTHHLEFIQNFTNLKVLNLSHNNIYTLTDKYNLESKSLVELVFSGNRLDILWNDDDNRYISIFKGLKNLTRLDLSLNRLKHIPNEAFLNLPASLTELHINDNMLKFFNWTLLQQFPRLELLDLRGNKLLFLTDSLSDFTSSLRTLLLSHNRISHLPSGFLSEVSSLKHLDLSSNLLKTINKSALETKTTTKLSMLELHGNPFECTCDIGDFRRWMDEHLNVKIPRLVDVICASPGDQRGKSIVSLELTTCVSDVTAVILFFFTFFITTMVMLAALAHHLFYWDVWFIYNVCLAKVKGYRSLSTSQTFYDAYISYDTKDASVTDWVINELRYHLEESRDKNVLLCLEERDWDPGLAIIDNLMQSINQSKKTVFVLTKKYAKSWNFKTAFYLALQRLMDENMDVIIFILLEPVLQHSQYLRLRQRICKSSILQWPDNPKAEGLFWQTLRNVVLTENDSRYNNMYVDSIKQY
Outline: as §1

human TLR9 = biological target: T3, human TLR9 (Homo sapiens, UniProt Q9NR96); assay: TLR9 inhibition reporter assay (HEK-Blue cells, SEAP reporter, ODN2006 stimulation); conditions: HEK-Blue cells overexpressing human TLR9, SEAP reporter, ODN2006 5 nM
T3 construct: host or cells: HEK-Blue cells (HEK293-derived reporter line)
T3 sequence (Q9NR96 26-1032): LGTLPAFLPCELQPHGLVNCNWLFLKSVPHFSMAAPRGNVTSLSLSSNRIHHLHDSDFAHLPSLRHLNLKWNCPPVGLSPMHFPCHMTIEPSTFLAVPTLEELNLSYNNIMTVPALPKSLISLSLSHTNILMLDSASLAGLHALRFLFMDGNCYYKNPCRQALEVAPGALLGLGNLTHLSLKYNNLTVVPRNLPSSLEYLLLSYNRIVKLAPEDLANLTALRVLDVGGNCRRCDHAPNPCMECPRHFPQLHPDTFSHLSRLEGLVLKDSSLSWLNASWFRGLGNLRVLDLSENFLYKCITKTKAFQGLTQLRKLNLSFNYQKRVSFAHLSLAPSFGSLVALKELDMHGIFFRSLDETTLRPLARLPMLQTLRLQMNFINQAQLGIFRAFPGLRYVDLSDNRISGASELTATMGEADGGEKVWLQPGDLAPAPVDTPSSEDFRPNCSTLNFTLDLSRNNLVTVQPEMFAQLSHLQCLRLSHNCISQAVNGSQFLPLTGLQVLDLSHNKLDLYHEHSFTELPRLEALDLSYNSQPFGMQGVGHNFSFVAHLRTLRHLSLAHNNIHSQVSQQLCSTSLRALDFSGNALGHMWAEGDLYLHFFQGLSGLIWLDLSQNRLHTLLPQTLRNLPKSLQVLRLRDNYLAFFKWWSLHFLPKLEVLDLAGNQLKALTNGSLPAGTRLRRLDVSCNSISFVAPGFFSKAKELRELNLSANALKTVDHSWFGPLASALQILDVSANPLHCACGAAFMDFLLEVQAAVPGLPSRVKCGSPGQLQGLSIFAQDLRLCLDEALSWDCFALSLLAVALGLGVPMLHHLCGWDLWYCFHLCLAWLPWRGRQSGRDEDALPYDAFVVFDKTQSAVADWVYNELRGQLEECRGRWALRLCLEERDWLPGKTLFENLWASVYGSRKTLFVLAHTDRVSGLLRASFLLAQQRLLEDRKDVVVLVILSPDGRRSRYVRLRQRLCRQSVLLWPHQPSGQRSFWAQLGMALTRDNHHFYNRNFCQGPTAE
Outline: as §1

| SMILES | IC50 (human TLR7) [µM] | IC50 (human TLR8) [µM] | IC50 (human TLR9) [µM] |
| --- | --- | --- | --- |
| Cc1cc(-c2[nH]c3ccc(C4CCN(C(=O)CN5CCC(F)CC5)CC4)cc3c2C(C)C)cn2nnnc12 [Example 474, 2-(4-fluoropiperidin-1-yl)-1-(4-(3-isopropyl-2-(8-methyltetrazolo[1,5-a]pyridin-6-yl)-1H-indol-5-yl)piperidin-1-yl) ethan-1-one] | < 0.1 | < 0.1 | 1 to 50 |
| CC(C)c1c(-c2ccnc3cnn(C)c23)[nH]c2ccc(C3CCNCC3)cc12 [Example 42, 7-(3-isopropyl-5-(piperidin-4-yl)-1H-indol-2-yl)-1-methyl-1H-pyrazolo[4,3-b]pyridine] | 1 to 50 | 0.1 to 1 | 1 to 50 |
| COc1c(C)c(-c2[nH]c3ccc(C4CCN(C(=O)CN(C)C)CC4)cc3c2C(C)C)nn2ncnc12 [Example 451, 2-(dimethylamino)-1-(4-(3-isopropyl-2-(8-methoxy-7-methyl-[1,2,4]triazolo[1,5-b]pyridazin-6-yl)-1H-indol-5-yl)piperidin-1-yl)ethan-1-one] | < 0.1 | < 0.1 | 1 to 50 |
| CCc1c(-c2cc3ccccc3o2)[nH]c2ccc(C3CCNCC3)cc12 [Example 186, 2-(benzofuran-2-yl)-3-ethyl-5-(piperidin-4-yl)-1H-indole] | 1 to 50 | 1 to 50 | 1 to 50 |
| CCc1c(-c2ccnc3[nH]ncc23)[nH]c2ccc(C3CCN(Cc4cncn4C)CC3)cc12 [Example 911, 4-(3-ethyl-5-(1-((1-methyl-1H-imidazol-5-yl)methyl)piperidin-4-yl)-1H-indol-2-yl)-1H-pyrazolo[3,4-b]pyridine] | 0.1 to 1 | < 0.1 | 1 to 50 |
| CCc1c(-c2ccnc3[nH]cc(Cl)c23)[nH]c2ccc(C3CCN(C4CCN(C(C)C)CC4)CC3)cc12 [Example 842, 3-chloro-4-(3-ethyl-5-(1′-isopropyl-[1,4′-bipiperidin]-4-yl)-1H-indol-2-yl)-1H-pyrrolo[2,3-b]pyridine] | 0.1 to 1 | < 0.1 | 0.1 to 1 |
| CC(C)c1c(-c2ccc3c(O)noc3c2)[nH]c2ccc(C3CCNCC3)cc12 [Example 5, 6-(3-isopropyl-5-(piperidin-4-yl)-1H-indol-2-yl)benzo[d]isoxazol-3-ol] | 0.1 to 1 | 1 to 50 | 1 to 50 |
| CCc1c(-c2ccnc3[nH]cnc23)[nH]c2ccc(C3CCNCC3)cc12 [Example 59, 7-(3-ethyl-5-(piperidin-4-yl)-1H-indol-2-yl)-3H-imidazo[4,5-b]pyridine] | < 0.1 | < 0.1 | 0.1 to 1 |
| CCc1c(-c2ccnc3[nH]ncc23)[nH]c2ccc(C3CCN(Cc4cn[nH]n4)CC3)cc12 [Example 892, 4-(5-(1-((2H-1,2,3-triazol-4-yl)methyl)piperidin-4-yl)-3-ethyl-1H-indol-2-yl)-1H-pyrazolo[3,4-b]pyridine] | < 0.1 | < 0.1 | 1 to 50 |
| Cc1c(-c2ncnc3[nH]ccc23)[nH]c2ccc(C3CCN(C4CCN(C(C)C)CC4)CC3)cc12 [Example 814, 4-(5-(1′-isopropyl-[1,4′-bipiperidin]-4-yl)-3-methyl-1H-indol-2-yl)-7H-pyrrolo[2,3-d]pyrimidine] | 0.1 to 1 | < 0.1 | < 0.1 |
| CC(C)c1c(-c2ccnc3[nH]ncc23)[nH]c2ccc(C3CCN(Cc4csc(N)n4)CC3)cc12 [Example 925, 4-((4-(3-isopropyl-2-(1H-pyrazolo[3,4-b]pyridin-4-yl)-1H-indol-5-yl)piperidin-1-yl)methyl)thiazol-2-amine] | < 0.1 | < 0.1 | 1 to 50 |
| Cc1cc(-c2[nH]c3ccc(C4CCN(C(=O)C[C@@H](C)O)CC4)cc3c2C(C)C)cn2nnnc12 [Example 594, (R)-3-hydroxy-1-(4-(3-isopropyl-2-(8-methyltetrazolo[1,5-a]pyridin-6-yl)-1H-indol-5-yl)piperidin-1-yl)butan-1-one] | < 0.1 | < 0.1 | 1 to 50 |
